The record followed here is patent US20070049518A1, “Novel method of treatment of inflammatory skin conditions” (priority 2005, published 2007).

For orientation: IC50 means the concentration that inhibits the measured activity by half. Usually inhibition stands for the change of the read-out against control, counted positive when it falls.

The target in experiment [1] is T1, purified aureolysin type I (Staphylococcus aureus, UniProt P81177).
T1 construct: purchased BioCentrum Ltd
Nature of the experiment: biochemical.

Experiment [2] has as its target T2, purified aureolysin type II (Staphylococcus aureus, UniProt P81177).
T2 sequence (P81177 1-509): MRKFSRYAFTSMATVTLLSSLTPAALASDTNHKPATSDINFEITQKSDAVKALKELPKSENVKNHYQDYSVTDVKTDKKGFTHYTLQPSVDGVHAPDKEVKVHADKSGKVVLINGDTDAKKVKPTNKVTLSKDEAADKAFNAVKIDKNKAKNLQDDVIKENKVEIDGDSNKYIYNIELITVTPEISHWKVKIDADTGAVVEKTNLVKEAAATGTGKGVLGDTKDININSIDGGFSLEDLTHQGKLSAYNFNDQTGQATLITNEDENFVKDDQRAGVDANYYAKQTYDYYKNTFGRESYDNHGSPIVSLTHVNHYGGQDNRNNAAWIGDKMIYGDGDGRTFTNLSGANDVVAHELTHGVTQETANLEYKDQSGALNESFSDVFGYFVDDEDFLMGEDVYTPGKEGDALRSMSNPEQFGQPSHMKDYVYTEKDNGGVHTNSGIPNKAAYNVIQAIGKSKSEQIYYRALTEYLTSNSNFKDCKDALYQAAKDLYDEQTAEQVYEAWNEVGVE
Description: Aureolysin enzyme inhibition assay, type II. Format: biochemical. The note with it: pH 6.8, 37° C., 1 hour; read-out: IC50 value Aureolysin type II.

Experiment [3] concerns the target T3, human MMP-1 (Homo sapiens, UniProt P03956).
T3 construct: purchased Calbiochem
T3 sequence (P03956 100-469): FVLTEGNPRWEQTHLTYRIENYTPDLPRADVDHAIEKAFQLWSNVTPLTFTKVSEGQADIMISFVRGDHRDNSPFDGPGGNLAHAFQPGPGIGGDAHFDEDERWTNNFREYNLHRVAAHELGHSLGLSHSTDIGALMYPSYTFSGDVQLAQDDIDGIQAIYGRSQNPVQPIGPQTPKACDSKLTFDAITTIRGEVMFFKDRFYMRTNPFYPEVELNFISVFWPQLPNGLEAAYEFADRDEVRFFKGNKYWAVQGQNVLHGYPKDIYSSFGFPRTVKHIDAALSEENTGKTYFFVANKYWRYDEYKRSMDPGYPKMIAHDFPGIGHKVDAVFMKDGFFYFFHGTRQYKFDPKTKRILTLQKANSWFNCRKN
Description: MMP enzyme inhibition assay, MMP-1. The conditions noted are these: pH 7.5, 37° C., 1 hour. Format: biochemical.

Experiment [4] concerns the target T4, human MMP-9 (Homo sapiens, UniProt P14780).
T4 construct: purchased Calbiochem
Nature of the experiment: MMP enzyme inhibition assay, MMP-9. In kind it is biochemical. The note with it: pH 7.5, 37° C., 1 hour.

Experiment [5] has as its target T5, metalloprotease (aureolysin) activity in Staphylococcus aureus 8325-4 culture supernatants (Staphylococcus aureus, UniProt P81177).
T5 construct: 4 μl S. aureus culture supernatant; endogenous in cells; host or cells: Staphylococcus aureus 8325-4 (culture supernatant)
Nature of the experiment: Metalloprotease activity in S. aureus culture supernatants. Format: biochemical. How it is done: The culture was then centrifuged to remove the cells and the supernatant stored at −70° C. for subsequent use. […] Activity was expressed as the rate of increase in fluorescence as a function of time.

The subject of experiment [6] is S. aureus 8325-4. Nature of the experiment: S. aureus viability, viable cell counts. Format: cell-based, Staphylococcus aureus. The note with it: 50 μM compound; 16 h at 37° C. How it is done:
Brain heart infusion medium (5 ml; Becton Dickinson and Co.) containing 10% skimmed milk and 1% (v/v) DMSO vehicle ±50 μM compound was inoculated with S. aureus 8325-4 (approximately 10^7 cells in tryptic soy broth) and incubated for 16 h at 37° C./220 rpm. Duplicate samples (0.1 ml) were then removed from each culture, diluted into PBS, spread onto brain heart infusion agar (1.5%) and incubated at 37° C.

In experiment [7] the test system is S. aureus 8325-4. Nature of the experiment: S. aureus growth by turbidometry in micro-titre plates. Format: cell-based, Staphylococcus aureus. The note with it: for inhibition at 100 µM: Staphylococcus aureus, 83254, growth inhibition, overnight, absorbance 620 nm, read-out: Inhibition at 0.1 mM. How it is done: Tryptic soy broth (0.18 ml) containing S. aureus 8325-4 (approximately 10^5 cells) was mixed with 20 μl 20% (v/v) DMSO vehicle±compound in the wells of a flat-bottomed clear polystyrene 96-well micro-titre plate. The plate was incubated overnight at 37° C./220 rpm and the absorbance measured at 620 nm the following day.

For experiment [8], the target named is T6, staphopain A (Staphylococcus aureus, UniProt P81297).
T6 construct: purchased BioCentrum Ltd
T6 sequence (P81297 215-388): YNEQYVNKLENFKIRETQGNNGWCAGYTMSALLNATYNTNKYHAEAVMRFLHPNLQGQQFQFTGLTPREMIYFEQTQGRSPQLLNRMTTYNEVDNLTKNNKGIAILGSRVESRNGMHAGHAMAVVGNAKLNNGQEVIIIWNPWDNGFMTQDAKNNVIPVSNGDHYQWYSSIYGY
Description: Selectivity profile, staphopain A. Format: biochemical. The note with it: read-out: inhibition at 0.1 mM, Staphopain A. How it is done:
(§1) Inhibitory activity was tested in reaction mixtures (0.1 ml) containing 2% (v/v) DMSO vehicle±compound plus additions as follows. V8 protease: 90 mM MOPS (sodium) buffer pH 7.0, […] calcium chloride, 0.045% Brij 35, 10 μM Mca-Leu-Glu-Val-Asp-Gly-Trp-Lys(Dnp)-amide (Bachem) and V8 (BioCentrum Ltd; 30 ng). Staphopain A and B: 90 mM MOPS (sodium) buffer pH 7.0, 1.8 mM cysteine-HCl (pH-adjusted with NaOH), 0.045% Brij 35, 0.1 mM Z-Phe-Arg-AMC hydrochloride (Bachem) and staphopain A or B (BioCentrum Ltd; 30 ng). Human kallikrein 5: 0.1M sodium phosphate buffer pH 8.0, 0.045% Brij 35, 0.1 mM Boc-Val-Pro-Arg-AMC (Sigma) and recombinant human kallikrein 5 (R&D Systems Inc; 6 ng). Human kallikrein 7: 72 mM Tris-HCl pH 8.0, 0.033% Brij 35, 1.2 mM S-2586 (Chromogenix Instrumentation Laboratory SpA) and recombinant human kallikrein 7 (R&D Systems Inc; 0.6 μg) that had been thermolysin-activated according to the manufacturer's instructions. Human angiotensin-converting enzyme (ACE): 45 mM MES (sodium) buffer pH 6.5, 0.045% Brij 35, 10 μM Mca-[…]Dnp)-OH(R&D Systems Inc) and recombinant human ACE (R&D Systems Inc; 1.3 ng). Human cathepsin D: 0.1M sodium acetate buffer pH 3.5, 0.2M sodium chloride, 0.045% Brij 35, 10 μM Mca-Pro-Leu-Gly-Leu-Dap(Dnp)-Ala-Arg-amide (Bachem) and recombinant human cathepsin D (R&D Systems Inc; 8 ng) activated according to the manufacturer's instructions. […]

The target in experiment [9] is T7, staphopain B (Staphylococcus aureus, UniProt P0C1S6).
T7 construct: purchased BioCentrum Ltd
T7 sequence (P0C1S6 220-393): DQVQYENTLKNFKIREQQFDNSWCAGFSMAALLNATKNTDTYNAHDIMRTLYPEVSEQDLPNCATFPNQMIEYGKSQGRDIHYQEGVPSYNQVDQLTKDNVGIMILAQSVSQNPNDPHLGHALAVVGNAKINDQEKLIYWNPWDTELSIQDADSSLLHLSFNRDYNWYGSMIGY
Nature of the experiment: Selectivity profile, staphopain B. In kind it is biochemical. The conditions noted are these: read-out: inhibition at 0.1 mM, Staphopain B. How it is done:
as §1

Each structure is given as a SMILES string.

T4 sequence (P14780 94-707): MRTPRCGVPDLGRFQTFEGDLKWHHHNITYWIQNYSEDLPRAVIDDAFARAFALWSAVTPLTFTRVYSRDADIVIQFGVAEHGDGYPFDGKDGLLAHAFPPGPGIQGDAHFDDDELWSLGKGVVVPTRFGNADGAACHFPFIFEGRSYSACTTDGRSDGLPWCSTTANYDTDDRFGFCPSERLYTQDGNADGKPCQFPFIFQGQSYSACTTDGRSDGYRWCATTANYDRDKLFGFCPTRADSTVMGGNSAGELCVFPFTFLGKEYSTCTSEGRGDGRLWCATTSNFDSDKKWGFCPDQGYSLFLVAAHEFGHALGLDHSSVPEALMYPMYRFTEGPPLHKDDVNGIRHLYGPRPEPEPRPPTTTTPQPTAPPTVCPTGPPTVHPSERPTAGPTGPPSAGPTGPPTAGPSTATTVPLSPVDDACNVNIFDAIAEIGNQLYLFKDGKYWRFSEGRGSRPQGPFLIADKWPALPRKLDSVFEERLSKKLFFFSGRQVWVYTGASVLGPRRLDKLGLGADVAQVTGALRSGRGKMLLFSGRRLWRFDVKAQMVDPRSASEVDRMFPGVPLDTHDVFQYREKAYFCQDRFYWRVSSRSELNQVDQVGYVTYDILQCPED

With `CNC(=O)[C@@H](NC(=O)[C@H](CC(=O)NO)CC(C)C)C(C)(C)C` [Compound 12, (S)—N1-((S)-3,3-dimethyl-1-(methylamino)-1-oxobutan-2-yl)-N4-hydroxy-2-isobutylsuccinamide], the half-inhibitory concentration (IC50) in [1] is 1300 nM; in experiment [2], 2200 nM; in experiment [3], 2300 nM; in experiment [4], 4600 nM; in experiment [5], 4300 nM. The “Viable cell counts, Cells/ml” value in [6] is 1.3 × 10^9 Cells/ml. Further, the inhibition at 100 µM in experiment [7] was found to be 0%; in experiment [8], 0%; in experiment [9], 10%.
As to `CNC(=O)[C@@H](NC(=O)[C@@H](CC(=O)NO)CC(C)C)C(C)(C)C` [Compound 11, (R)—N1-((S)-3,3-dimethyl-1-(methylamino)-1-oxobutan-2-yl)-N4-hydroxy-2-isobutylsuccinamide], the IC50 in [1] was determined as 1300 nM; in [2], 2400 nM; in [3], 2.8 nM; in [4], 3.6 nM; in [5] it was 3700 nM. The “Viable cell counts, Cells/ml” value in experiment [6] is listed as 1.6 × 10^9 Cells/ml. Besides, the inhibition at 100 µM was 2% in [7], 5% in experiment [8] and 11% in [9]. In [7] (data in Tables 10 and 11), the “anti-bacterial activity (in words)” value is given as “not anti-bacterial”.
